The text below walks through data of patent US6794494B1, “Cancerous disease modifying antibodies” (Arius Research, Inc., priority 2003, dated 2004).

For one series, the system named is OVCAR cells. The settings on record: 5 days; four experiments in triplicate; concentration (10A304.7, Anti-Fas, 107.3, MPC-11 20 μg/mL; c225 5 μg/mL; Cycloheximide 100 μM).
Series [1] relates to SW620 cells. The settings on record: human.
Series [2] concerns SW1116 cells. Nature of the series: Live/Dead cytotoxicity assay, hybridoma supernatant. The settings on record: hybridoma supernatant or controls, 5 days.
For series [3], the system named is SW620 cells. Nature of the series: Live/Dead cytotoxicity assay, purified antibody. The settings on record: 5 days; four experiments in triplicate; concentration (10A304.7, Anti-Fas, 107.3, MPC-11 20 μg/mL; c225 5 μg/mL; Cycloheximide 100 μM).
The subject of another series is MCF-7 cells. The settings on record: 5 days; four experiments in triplicate; concentration (10A304.7, Anti-Fas, 107.3, MPC-11 20 μg/mL; c225 5 μg/mL; Cycloheximide 100 μM).
For a further series, the system named is Lovo cells. The settings on record: 5 days; four experiments in triplicate; concentration (10A304.7, Anti-Fas, 107.3, MPC-11 20 μg/mL; c225 5 μg/mL; Cycloheximide 100 μM).
The test system of the next series is PC-3 cells. The settings on record: 5 days; four experiments in triplicate; concentration (10A304.7, Anti-Fas, 107.3, MPC-11 20 μg/mL; c225 5 μg/mL; Cycloheximide 100 μM).
The subject of series [4] is HT-29 cells. The settings on record: human.
A further series deals with DLD-1 cells. The settings on record: 5 days; four experiments in triplicate; concentration (10A304.7, Anti-Fas, 107.3, MPC-11 20 μg/mL; c225 5 μg/mL; Cycloheximide 100 μM).
The test system of another series is BxPC-3 cells. The settings on record: 5 days; four experiments in triplicate; concentration (10A304.7, Anti-Fas, 107.3, MPC-11 20 μg/mL; c225 5 μg/mL; Cycloheximide 100 μM).
Series [5] deals with SW1116 cells. The settings on record: 5 days; four experiments in triplicate; concentration (10A304.7, Anti-Fas, 107.3, MPC-11 20 μg/mL; c225 5 μg/mL; Cycloheximide 100 μM).
For series [6], the system named is HT-29 cells. Nature of the series: Live/Dead cytotoxicity assay, purified antibody. The settings on record: 5 days; four experiments in triplicate; concentration (10A304.7, Anti-Fas, 107.3, MPC-11 20 μg/mL; c225 5 μg/mL; Cycloheximide 100 μM).
For another series, the system named is MB-231 cells. The settings on record: 5 days; four experiments in triplicate; concentration (10A304.7, Anti-Fas, 107.3, MPC-11 20 μg/mL; c225 5 μg/mL; Cycloheximide 100 μM).
The test system of another series is colorectal cancer. The settings on record: cited from earlier work.

In the case of `C[C@@H]1C[C@@H]([C@H](O)CC2CC(=O)NC(=O)C2)C(=O)[C@@H](C)C1` [Cycloheximide], in the series on OVCAR cells, the “Cytotoxicity above background, Ovary OVCAR” value is listed as “++++ (4/4 experiments with 15% cytotoxicity above background (++++))”. For the same molecule, the “Cytotoxicity (%) SW620 Average” value with SW620 cells [1] is −2%. Further, in the series on SW1116 cells [2], the “Cytotoxicity (%) SW1116 Average” value is reported as 17%. In addition, in the series with SW620 cells [3], the “Cytotoxicity above background, Colon SW820” value is reported as “++++ (4/4 experiments with 15% cytotoxicity above background (++++))”. Besides, the “Cytotoxicity above background, Breast MCF-7” value in the series on MCF-7 cells is “++++ (4/4 experiments with 15% cytotoxicity above background (++++))”. Besides, in the series on Lovo cells, the “Cytotoxicity above background, Colon Lovo” value is reported as “++++ (4/4 experiments with 15% cytotoxicity above background (++++))”. In addition, in the series with PC-3 cells, the “Cytotoxicity above background, Prostate PC-3” value is given as “++++ (4/4 experiments with 15% cytotoxicity above background (++++))”. Further, the “Cytotoxicity (%) HT-29 Average” value in the series with HT-29 cells [4] amounted to 23%. Further, the “Cytotoxicity above background, Colon DLD-1” value in the series on DLD-1 cells is reported as “++++ (4/4 experiments with 15% cytotoxicity above background (++++))”. For the same molecule, the “Cytotoxicity above background, Pancreas BxPC-3” value with BxPC-3 cells is given as “++++ (4/4 experiments with 15% cytotoxicity above background (++++))”. Further, the “Cytotoxicity above background, Colon SW1116” value in the series on SW1116 cells [5] is on record as “++++ (4/4 experiments with 15% cytotoxicity above background (++++))”. Also, the “Cytotoxicity above background, Colon HT-29” value with HT-29 cells [6] is reported as “++++ (4/4 experiments with 15% cytotoxicity above background (++++))”. Also, in the series on MB-231 cells, the “Cytotoxicity above background, Breast MB-231” value is on record as “++++ (4/4 experiments with 15% cytotoxicity above background (++++))”.

B1: 17-1A: antibody with some specificity for adenocarcinomas, tested in colorectal cancer clinical trials (antibody, chains of the INN, looked up, V domains shown)
VH: QVQLQQSGAELVRPGTSVKVSCKASGYAFTNYLIEWVKQRPGQGLEWIGVINPGSGGTNYNEKFKGKATLTADKSSSTAYMQLSSLTSDDSAVYFCARDGPWFAYWGQGTLVTVSA
VL: NIVMTQSPKSMSMSVGERVTLTCKASENVVTYVSWYQQKPEQSPKLLIYGASNRYTGVPDRFTGSGSATDFTLTISSVQAEDLADYHCGQGYSYPYTFGGGTKLEIK
On to B1, for which the “clinical response, protocols using additional cyclophosphamide” value in the series on colorectal cancer (52 patients, with cyclophosphamide) was “only one complete response and two minor responses among 52 patients”. For the same molecule, in the series on colorectal cancer (over 60 patients), the “clinical response, Phase 2 clinical trials” value is “only one patient having a partial response”.
